Source: patent US20240247030A1, “TARGETED DELIVERY OF TERTIARY AMINE-CONTAINING DRUG SUBSTANCES” (Seagen Inc., priority 2014, published 2024)
pIC50: −log10 of the molar value. Converted amounts (≈) assume the structure as drawn. *1 amine or outer side, *2 acyl side, *3 side chain or, on linkers, in order; H or OH if unused. Where a SMILES comes first, the peptide text is derived from it. [ ]: non-standard residue; d: D form. The star is where a group is joined. Dolaproine = CO[C@@H]([C@@H]1CCCN1)[C@@H](C)C(=O)O; Hexanoyl(6-maleimido) = O=C1C=CC(=O)N1CCCCCC(=O)*; Dil = CC[C@H](C)[C@H](NC)[C@@H](CC(=O)O)OC; PABC = O=C(OCc1ccc(N[*:1])cc1)[*:2]; Cit = NC(=O)NCCC[C@H](N)C(=O)O; NMeV = CN[C@H](C(=O)O)C(C)C

Experiments:
Type in all cases: cell-based
Karpas299 ALCL cells = experiment: In vitro cytotoxicity (CellTiter-Glo, 96 h); details: for pIC50: Homo sapiens, KARPAS-299, 96 h, read-out: IC50, Karpas299, ALCL, Table 6, free drug, 96 hours
Description: (§1) In vitro assays. Cells cultured in log-phase growth were seeded for 24 h in 96-well plates containing 150 μL RPMI 1640 supplemented with 20% FBS. Serial dilutions of antibody-drug conjugates in cell culture media were prepared at 4× working concentrations; 50 μL of each dilution was added to the 96-well plates. Following addition of ADC, cells were incubated with test articles for 4 d at 37° C. After 96 h, growth inhibition was assessed by CellTiter-Glo™ (Promega, Madison, W1) and luminescence was measured on a plate reader. The IC50 value, determined in triplicate, is defined here as the concentration that results in a 50% reduction in cell growth relative to untreated controls.

HL60/RV MDR+ AML cells = experiment: In vitro cytotoxicity (CellTiter-Glo, 96 h); details: for pIC50: Homo sapiens, HL-60, 96 h, read-out: IC50, HL60/RV, MDR+ AML, Table 6, free drug, 96 hours
Description: as §1

[1] = tested on: L540cy Hodgkin lymphoma cells; experiment: In vitro cytotoxicity (CellTiter-Glo, 96 h); details: for pIC50: L540cy, 96 h, read-out: IC50, L540cy, HL, Table 6, free drug, 96 hours
HL60 AML cells = experiment: cells; details: for pIC50: Homo sapiens, HL-60, 96 h, read-out: IC50, HL60, AML, Table 6, free drug, 96 hours
Description: as §1

L428 MDR+ HL cells = experiment: In vitro cytotoxicity (CellTiter-Glo, 96 h); details: Homo sapiens, L-428, 96 h, read-out: IC50, L428, MDR+ HL, Table 6; free drug, 96 hours
panel of cell lines = experiment: In vitro cytotoxicity, statements across a panel of cell lines
Description: as §1

DEL ALCL cells = details: Table 11; cAC10 conjugate, 8-drugs/mAb
[2] = Table 15, cOKT-9 conjugate, 8-drugs/Ab

Structure (SMILES)	pIC50 (Karpas299 ALCL cells)	pIC50 (HL60/RV MDR+ AML cells)	pIC50 [1]	pIC50 (HL60 AML cells)	pIC50 (L428 MDR+ HL cells)	further results
CCCC(=O)O[C@H](C[C@H](C(C)C)N(C)C(=O)[C@@H](NC(=O)[C@H]1CCCCN1C)[C@@H](C)CC)c1nc(C(=O)N[C@@H](Cc2ccccc2)C[C@H](C)C(=O)O)cs1 [Compound 156, (2S,4R)-4-(2-((1R,3R)-1-(butyryloxy)-3-((2S,3S)—N,3-dimethyl-2-((R)-1-methylpiperidine-2-carboxamido)pentanamido)-4-methylpentyl)thiazole-4-carboxamido)-2-methyl-5-phenylpentanoic acid]	10.70	8.22	10.00	10.00	9.92	
CC[C@H](C)[C@H](NC(=O)[C@H]1CCCCN1C)C(=O)N(C)[C@H](C[C@@H](OC(=O)C(C)C)c1nc(C(=O)N[C@@H](Cc2ccccc2)C[C@H](C)C(=O)O)cs1)C(C)C [Compound 157, (2S,4R)-4-(2-((1R,3R)-3-((2S,3S)—N,3-dimethyl-2-((R)-1-methylpiperidine-2-carboxamido)pentanamido)-1-(isobutyryloxy)-4-methylpentyl)thiazole-4-carboxamido)-2-methyl-S-phenylpentanoic acid]	10.96	8.52	10.40	10.10	10.30	
CC[C@H](C)[C@H](NC(=O)[C@H]1CCCCN1C)C(=O)N(C)[C@H](C[C@@H](OC(=O)CC(C)(C)C)c1nc(C(=O)N[C@@H](Cc2ccccc2)C[C@H](C)C(=O)O)cs1)C(C)C [Compound 159, (2S,4R)-4-(2-((1R,3R)-3-((2S,3S)—N,3-dimethyl-2-((R)-1-methylpiperidine-2-carboxamido)pentanamido)-1-((3,3-dimethylbutanoyl)oxy)-4-methylpentyl)thiazole-4-carboxamido)-2-methyl-5-phenylpentanoic acid]						potency loss relative to tubulysin M (panel of cell lines; free drug, across the cell lines of Table 6): 5-47 fold
CC[C@H](C)[C@H](NC(=O)[C@H]1CCCCN1C(=O)CCCCCN1C(=O)C=CC1=O)C(=O)N(C)[C@H](C[C@@H](OC)c1nc(C(=O)N[C@@H](Cc2ccccc2)C[C@H](C)C(=O)O)cs1)C(C)C [Compound 172, (2S,4R)-4-(2-((1R,3R)-3-((2S,3S)-2-((R)-1-(6-(2,5-dioxo-2,5-dihydro-1H-pyrrol-1-yl)hexanoyl)piperidine-2-carboxamido)-N,3-dimethylpentanamido)-1-methoxy-4-methylpentyl)thiazole-4-carboxamido)-2-methyl-5-phenylpentanoic acid]						IC50, Karpas299, ALCL (Karpas299 ALCL cells; Table 11, cAC10 conjugate of the Drug-Linker, 8-drugs/mAb): >1 µg/mL; IC50, DEL, ALCL (DEL ALCL cells): >1 µg/mL; cytotoxic activity in words, conjugates on CD30+ lymphoma cell lines (panel of cell lines; conjugate of the named Drug Linker or named ADC): inactive; IC50, L540cy, HL ([1]; Table 11, cAC10 conjugate, 8-drugs/mAb): >1 µg/mL
CC[C@H](C)[C@@H]([C@@H](CC(=O)N1CCC[C@H]1[C@H](OC)[C@@H](C)C(=O)N[C@@H](Cc1ccccc1)C(=O)O)OC)N(C)C(=O)[C@@H](NC(=O)[C@H](C(C)C)N(C)C(=O)OCc1ccc(NC(=O)[C@H](CCCNC(N)=O)NC(=O)[C@@H](NC(=O)CCCCCN2C(=O)C=CC2=O)C(C)C)cc1)C(C)C [Compound 193, MC-Val-Cit-PABC-MMAF, reference compound] ({Hexanoyl(6-maleimido)}-V[Cit][PABC][NMeV]V[Dil][Dolaproine]F-OH)						IC50, HL60/RV, MDR+ AML (HL60/RV MDR+ AML cells; [2]): 0.015 µg/mL (≈ 0.0113 µM); IC50, HL60, AML (HL60 AML cells; [2]): 0.033 µg/mL (≈ 0.0248 µM)
